Experimental data published in patent publication US9415055B2, “Cyclic amines” (H. Lundbeck A/S, priority 2012, dated 2016).

The compounds below were run against P2X7 receptor (Homo sapiens (Human), UniProt Q99572) (assay: P2X7 FLIPR assay: antagonism of BzATP response in 293 HEK cells stably expressing P2X7 receptor). Conditions: FLIPR fluorescence (Fluo-4), agonist BzATP, 293 HEK cells stably transfected with P2X7 receptor.
Format: cell-based
Procedure: Cells were plated to cell density of approximately 15,000 cells/well in 384-well assay plates (50 μl/well) with 1.5% low serum media (DMEM, 1.5% BCS, 1% L-glut (2 mM), 1% P/S).
Cells were plated to cell density of approximately 15,000 cells/well in 384-well assay plates (50 μl/well) with 1.5% low serum media (DMEM, 1.5% FBS, 1% L-glut (2 mM), 10 mM HEPES, 1% P/S). Cells were plated 24 hours prior to assay. Cells expressing human, rat or mouse P2X7 receptor were assayed in the following manner.
Fluo-4 NW dye mix (Molecular Probes, Inc., Eugene, Oreg., USA) was prepared in buffer (see manufacturer's instructions). Cell plates were removed from the 37° C. incubator, the media discarded and then 30 μL of dye was added to each well. Plates were placed in the 37° C., non-CO2 incubator for 30 minutes and then room temperature for 30 minutes.
Compound mixtures (A) were added to assay plates containing cells and placed at room temperature for 30 minutes, then BzATP (B) was added. Fluorescence was read using the Tetra FLIPR® (Molecular Devices, Inc., Sunnyvale, Calif., USA) and IC50 values were calculated by standard methods to determine antagonist activity.

Chain of P2X7 receptor (Q99572 whole entry): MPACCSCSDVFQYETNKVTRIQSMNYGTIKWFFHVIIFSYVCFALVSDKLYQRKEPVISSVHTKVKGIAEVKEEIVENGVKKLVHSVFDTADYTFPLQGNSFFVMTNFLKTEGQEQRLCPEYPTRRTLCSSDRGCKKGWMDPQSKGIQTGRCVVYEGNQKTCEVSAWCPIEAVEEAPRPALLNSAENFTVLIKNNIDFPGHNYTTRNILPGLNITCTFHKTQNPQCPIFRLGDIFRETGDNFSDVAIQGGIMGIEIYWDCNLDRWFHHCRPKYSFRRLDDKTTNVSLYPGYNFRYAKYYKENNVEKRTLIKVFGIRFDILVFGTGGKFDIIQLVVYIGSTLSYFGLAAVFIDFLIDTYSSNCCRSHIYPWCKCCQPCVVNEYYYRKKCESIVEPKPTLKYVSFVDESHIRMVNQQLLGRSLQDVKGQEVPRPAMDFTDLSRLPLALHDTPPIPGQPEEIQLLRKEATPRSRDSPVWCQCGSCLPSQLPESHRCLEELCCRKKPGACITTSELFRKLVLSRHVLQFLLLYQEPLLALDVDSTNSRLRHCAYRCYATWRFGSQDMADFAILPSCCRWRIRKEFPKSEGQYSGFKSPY

Row | SMILES | IC50 [nM]
1 | CCc1ncc(C(CNC(=O)c2c(F)cccc2Cl)N2CCC(F)(F)CC2)cn1 (single isomer, unassigned; (-)) [(−)2-chloro-N-[2-(4,4-difluoro-1-piperidyl)-2-(2-ethylpyrimi] [(−)2-chloro-6-fluoro-N-(2-(4,4-difluoropiperidin-1-yl)-2-(2-ethylpyrimidin-5-yl)ethyl)benzamide] | 36
2 | CCc1ncc(C(CNC(=O)c2ccccc2Cl)N2CCC(F)(F)CC2)cn1 (single isomer, unassigned; (-)) [(−)2-chloro-N-[2-(4,4-difluoro-1-piperidyl)-2-(2-ethylpyrimi] [(−)2-chloro-N-(2-(4,4-difluoropiperidin-1-yl)-2-(2-ethylpyrimidin-5-yl)ethyl)benzamide] | 17
3 | Cc1ncc(C(CNC(=O)c2cccc(Cl)c2Cl)N2CCCCC2)cn1 (single isomer, unassigned; (-)) [(−)2,3-dichloro-N-[2-(2-methylpyrimidin-5-yl)-2-(1-piperidyl] [(−)2,3-dichloro-N-(2-(2-methylpyrimidin-5-yl)-2-(piperidin-1-yl)ethyl)benzamide] | 21
4 | O=C(NCC(c1cnc(C2CC2)nc1)N1CCC(F)(F)CC1)c1ccccc1Cl (single isomer, unassigned; (-)) [(−)2-chloro-N-[2-(2-cyclopropylpyrimidin-5-yl)-2-(4,4-difluo] [(−)2-chloro-N-(2-(2-cyclopropylpyrimidin-5-yl)-2-(4,4-difluoropiperidin-1-yl)ethyl)benzamide] | 7.6
5 | O=C(NCC(c1cnc(C(F)(F)F)nc1)N1CCC(F)(F)CC1)c1c(Cl)cc(F)cc1Cl (single isomer, unassigned; (+)) [(+)2,6-dichloro-N-[2-(4,4-difluoro-1-piperidyl)-2-[2-(triflu] [(+)2,6-dichloro-4-fluoro-N-(2-(4,4-difluoropiperidin-1-yl)-2-(2-(trifluoromethyl)pyrimidin-5-yl)ethyl)benzamide] | 7.5
6 | O=C(NCC(c1ccc(C(F)F)nc1)N1CCC(F)(F)CC1)c1cccc(Cl)c1Cl (single isomer, unassigned; (+)) [(+)2,3-dichloro-N-[2-[6-(difluoromethyl)-3-pyridyl]-2-(4,4-d] [(+)2,3-dichloro-N-(2-(2-(difluoromethyl)pyridin-5-yl)-2-(4,4-difluoropiperidin-1-yl)ethyl)benzamide] | 2.4
7 | Cc1ncc(C(CNC(=O)c2cccc(Cl)c2Cl)N2CCOCC2)cn1 (single isomer, unassigned; (+)) [(+)2,3-dichloro-N-[2-(2-methylpyrimidin-5-yl)-2-morpholino-e] [(+)2,3-Dichloro-N-[2-(2-methylpyrimidin-5-yl)-2-morpholino-ethyl]benzamide] | 69
8 | CN(C)c1ncc(C(CNC(=O)c2cccc(Cl)c2Cl)N2CCC(F)(F)CC2)cn1 (centres unmarked) [2,3-dichloro-N-(2-(4,4-difluoropiperidin-1-yl)-2-(2-(dimethylamino)pyrimidin-5-yl)ethyl)benzamide] | 6.6
9 | Cc1ncc(C(CNC(=O)c2ccccc2Cl)N2CCCCC2)cn1 (single isomer, unassigned; (+)) [(+)2-chloro-N-[2-(2-methylpyrimidin-5-yl)-2-(1-piperidyl)eth] [(+)2-chloro-N-(2-(2-methylpyrimidin-5-yl)-2-(piperidin-1-yl)ethyl)benzamide] | 59
10 | Cc1ncc(C(CNC(=O)c2cccc(Cl)c2Cl)N2CCC(F)(F)CC2)cn1 (single isomer, unassigned; (-)) [(−)2,3-dichloro-N-[2-(4,4-difluoro-1-piperidyl)-2-(2-methylp] [(−)2,3-dichloro-N-(2-(4,4-difluoropiperidin-1-yl)-2-(2-methylpyrimidin-5-yl)ethyl)benzamide] | 5.8
11 | Cc1ncc(C(CNC(=O)c2c(F)cccc2Cl)N2CCOCC2)cn1 (centres unmarked) [2-chloro-6-fluoro-N-(2-(2-methylpyrimidin-5-yl)-2-morpholinoethyl)benzamide] | 590
